PubChem BioAssay (NCI)
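Results reflect a 48-hour exposure of cells in 96-well plates to compound at five concentrations. At the GI50, growth is halved. The concentration for full growth arrest is given as TGI.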

Key:
Experiment in all cases: NCI anticancer screen, dose series, 48 h
786-0 renal = system: 786-0 renal
A498 renal = system: A498 renal
A549 NSCLC = system: A549 NSCLC
ACHN renal = system: ACHN renal
BT-549 breast = system: BT-549 breast
CAKI-1 renal = system: CAKI-1 renal
CCRF-CEM leukemia = system: CCRF-CEM leukemia
COLO 205 colon = system: COLO 205 colon
DU-145 prostate = system: DU-145 prostate
EKVX NSCLC = system: EKVX NSCLC
HCC-2998 colon = system: HCC-2998 colon
HCT-116 colon = system: HCT-116 colon
HCT-15 colon = system: HCT-15 colon
HL-60(TB) leukemia = system: HL-60(TB) leukemia
HOP-62 NSCLC = system: HOP-62 NSCLC
HOP-92 NSCLC = system: HOP-92 NSCLC
HS 578T breast = system: HS 578T breast
HT29 colon = system: HT29 colon
IGROV1 ovarian = system: IGROV1 ovarian
K-562 leukemia = system: K-562 leukemia
KM12 colon = system: KM12 colon
LOX IMVI melanoma = system: LOX IMVI melanoma
M14 melanoma = system: M14 melanoma
MALME-3M melanoma = system: MALME-3M melanoma
MCF7 breast = system: MCF7 breast
MDA-MB-231 breast = system: MDA-MB-231 breast
MDA-MB-435 = system: MDA-MB-435
MOLT-4 leukemia = system: MOLT-4 leukemia
NCI-H226 lung = system: NCI-H226 lung
NCI-H23 lung = system: NCI-H23 lung
NCI-H460 lung = system: NCI-H460 lung
NCI-H522 lung = system: NCI-H522 lung
NCI/ADR-RES ovarian = system: NCI/ADR-RES ovarian
OVCAR-3 ovarian = system: OVCAR-3 ovarian
OVCAR-4 ovarian = system: OVCAR-4 ovarian
OVCAR-5 ovarian = system: OVCAR-5 ovarian
OVCAR-8 ovarian = system: OVCAR-8 ovarian
PC-3 prostate = system: PC-3 prostate
RPMI-8226 leukemia = system: RPMI-8226 leukemia
SF-268 CNS = system: SF-268 CNS
SF-295 CNS = system: SF-295 CNS
SF-539 CNS = system: SF-539 CNS
SK-MEL-2 melanoma = system: SK-MEL-2 melanoma
SK-MEL-28 melanoma = system: SK-MEL-28 melanoma
SK-MEL-5 melanoma = system: SK-MEL-5 melanoma
SK-OV-3 ovarian = system: SK-OV-3 ovarian
SN12C renal = system: SN12C renal
SNB-19 CNS = system: SNB-19 CNS
SNB-75 CNS = system: SNB-75 CNS
SR leukemia = system: SR leukemia
SW-620 colon = system: SW-620 colon
T-47D breast = system: T-47D breast
TK-10 renal = system: TK-10 renal
U251 CNS = system: U251 CNS
UACC-257 melanoma = system: UACC-257 melanoma
UACC-62 melanoma = system: UACC-62 melanoma
UO-31 renal = system: UO-31 renal

Molecule `Oc1cc2ccccc2c(-c2c(O)c(O)cc3ccccc23)c1O` has a GI50 (786-0 renal) of 0.201 µM, a TGI (786-0 renal) of 1.07 µM and a GI50 (A498 renal) of 1.14 µM. It also gave a TGI (A498 renal) of 10.5 µM, a GI50 (A549 NSCLC) of 0.41 µM and a TGI (A549 NSCLC) of 19.3 µM. It also gave a GI50 (ACHN renal) of 0.571 µM, a TGI (ACHN renal) of 21.1 µM and a GI50 (BT-549 breast) of 4.17 µM. The TGI (BT-549 breast) was 27.8 µM, the GI50 (CAKI-1 renal) was 0.852 µM and the TGI (CAKI-1 renal) was 6.55 µM. For the same molecule, the GI50 (CCRF-CEM leukemia) was 0.554 µM, the TGI (CCRF-CEM leukemia) was over 27.7 µM and the GI50 (COLO 205 colon) was 2.06 µM. It also gave a TGI (COLO 205 colon) of 8.95 µM, a GI50 (DU-145 prostate) of 2.29 µM and a TGI (DU-145 prostate) of 15.4 µM. It also gave a GI50 (EKVX NSCLC) of 1.87 µM, a TGI (EKVX NSCLC) of over 44.4 µM and a GI50 (HCC-2998 colon) of 0.506 µM. It also gave a TGI (HCC-2998 colon) of 2.61 µM, a GI50 (HCT-116 colon) of 0.427 µM and a TGI (HCT-116 colon) of 11.9 µM. It also gave a GI50 (HCT-15 colon) of 0.323 µM, a TGI (HCT-15 colon) of 14.8 µM and a GI50 (HL-60(TB) leukemia) of 1.59 µM. For the same molecule, the TGI (HL-60(TB) leukemia) was over 20.6 µM, the GI50 (HOP-62 NSCLC) was 1.03 µM and the TGI (HOP-62 NSCLC) was 8.39 µM. For the same molecule, the GI50 (HOP-92 NSCLC) was 1.87 µM, the TGI (HOP-92 NSCLC) was 16.3 µM and the GI50 (HS 578T breast) was 2.9 µM. For the same molecule, the TGI (HS 578T breast) was over 44.1 µM, the GI50 (HT29 colon) was 3.95 µM and the TGI (HT29 colon) was 25.3 µM. The GI50 (IGROV1 ovarian) was 0.273 µM, the TGI (IGROV1 ovarian) was 3.4 µM and the GI50 (K-562 leukemia) was 0.0738 µM. For the same molecule, the GI50 (KM12 colon) was 2.81 µM, the TGI (KM12 colon) was 17.4 µM and the GI50 (LOX IMVI melanoma) was 0.939 µM. The TGI (LOX IMVI melanoma) was 8.57 µM, the GI50 (M14 melanoma) was 1.4 µM and the TGI (M14 melanoma) was 11.4 µM. The GI50 (MALME-3M melanoma) was 3.85 µM, the TGI (MALME-3M melanoma) was 21.4 µM and the GI50 (MCF7 breast) was 0.228 µM. The TGI (MCF7 breast) was 13 µM, the GI50 (MDA-MB-231 breast) was 4.64 µM and the TGI (MDA-MB-231 breast) was 34.2 µM. For the same molecule, the GI50 (MDA-MB-435) was 1.17 µM, the TGI (MDA-MB-435) was 12.4 µM and the GI50 (MOLT-4 leukemia) was 0.897 µM. It also gave a TGI (MOLT-4 leukemia) of 18.7 µM, a GI50 (NCI-H226 lung) of 3.83 µM and a TGI (NCI-H226 lung) of 26.6 µM. For the same molecule, the GI50 (NCI-H23 lung) was 0.703 µM, the TGI (NCI-H23 lung) was 15.4 µM and the GI50 (NCI-H460 lung) was 0.145 µM. It also gave a TGI (NCI-H460 lung) of 2.78 µM, a GI50 (NCI-H522 lung) of 2.31 µM and a TGI (NCI-H522 lung) of 21 µM. The GI50 (NCI/ADR-RES ovarian) was 1.83 µM, the TGI (NCI/ADR-RES ovarian) was 12.4 µM and the GI50 (OVCAR-3 ovarian) was 0.825 µM. The TGI (OVCAR-3 ovarian) was 17.9 µM, the GI50 (OVCAR-4 ovarian) was 2.3 µM and the TGI (OVCAR-4 ovarian) was 34.3 µM. The GI50 (OVCAR-5 ovarian) was 4.54 µM, the TGI (OVCAR-5 ovarian) was 24.1 µM and the GI50 (OVCAR-8 ovarian) was 2.16 µM. It also gave a TGI (OVCAR-8 ovarian) of over 24 µM, a GI50 (PC-3 prostate) of 2.17 µM and a TGI (PC-3 prostate) of over 52.2 µM. It also gave a GI50 (RPMI-8226 leukemia) of 0.743 µM, a TGI (RPMI-8226 leukemia) of over 28.2 µM and a GI50 (SF-268 CNS) of 1.88 µM. For the same molecule, the TGI (SF-268 CNS) was 23.3 µM, the GI50 (SF-295 CNS) was 0.77 µM and the TGI (SF-295 CNS) was over 29.6 µM. The GI50 (SF-539 CNS) was 1.68 µM, the TGI (SF-539 CNS) was 5.46 µM and the GI50 (SK-MEL-2 melanoma) was 2.74 µM. The TGI (SK-MEL-2 melanoma) was 15.5 µM, the GI50 (SK-MEL-28 melanoma) was 3.37 µM and the TGI (SK-MEL-28 melanoma) was 20.7 µM. The GI50 (SK-MEL-5 melanoma) was 1.1 µM, the TGI (SK-MEL-5 melanoma) was 4.49 µM and the GI50 (SK-OV-3 ovarian) was 1.68 µM. It also gave a TGI (SK-OV-3 ovarian) of 17.3 µM, a GI50 (SN12C renal) of 1.99 µM and a TGI (SN12C renal) of 15.8 µM. The GI50 (SNB-19 CNS) was 2.75 µM, the TGI (SNB-19 CNS) was 27.8 µM and the GI50 (SNB-75 CNS) was 2.23 µM. For the same molecule, the TGI (SNB-75 CNS) was 28.1 µM, the GI50 (SR leukemia) was 0.912 µM and the TGI (SR leukemia) was over 100 µM. It also gave a GI50 (SW-620 colon) of 3.49 µM, a TGI (SW-620 colon) of 26.9 µM and a GI50 (T-47D breast) of 0.319 µM. It also gave a TGI (T-47D breast) of 14.5 µM, a GI50 (TK-10 renal) of 1.38 µM and a TGI (TK-10 renal) of 30.9 µM. For the same molecule, the GI50 (U251 CNS) was 1.32 µM, the TGI (U251 CNS) was 20.3 µM and the GI50 (UACC-257 melanoma) was 3.24 µM. The TGI (UACC-257 melanoma) was 24.3 µM, the GI50 (UACC-62 melanoma) was 1.26 µM and the TGI (UACC-62 melanoma) was 4.23 µM. For the same molecule, the GI50 (UO-31 renal) was 0.512 µM and the TGI (UO-31 renal) was 6.41 µM.
